Data as given in patent publication US6573291B2, “Method and use” (Biovitrum AB, priority 2000, dated 2003).

Key:
RIN-m5F cells = test: Inhibition of GLP-1 stimulated insulin release in RIN-m5F cells; format: cell-based; details: for GLP-1 induced insulin release: 3 nM GLP-1, 1 h, compounds 0.1 μM to 30 μM, FIG. 3
Protocol: The RIN-m5F cells were grown as in Example 2. The cells were plated in 96-well plates (10,000 per well) at a density of 2×10^5 cells per ml and grown for 3 days. The culture medium was changed the day before the experiment. On the day of the experiment, the medium was removed and replaced with serum-free RPMI 1640 containing 0.1% bovine serum albumin (serum-free medium). Dilutions of compounds prepared in serum-free medium from 10 mM DMSO stock solutions to give final concentrations from 0.1 μM to 30 μM were added. The cells were stimulated with 3 nM GLP-1 in a total volume of 200 μl for 1 h and the concentration of insulin in the medium was measured in an ELISA (Mercodia AB). The insulin release in the presence of medium was 6.3±1.4 ng/ml and 10.5±1.4 ng/ml in the presence of 3 nM GLP-1.

[1] = target: T1, endogenous GLP-1 receptor coupled to adenylate cyclase (Rattus norvegicus, UniProt P32301); test: Inhibition of GLP-1 induced cAMP signaling in RIN-m5F insulinoma cells; format: cell-based; details: 3 nM GLP-1, 15 minutes, FIG. 2
T1 construct: host or cells: RIN-m5F insulinoma cells
T1 sequence (P32301 22-463): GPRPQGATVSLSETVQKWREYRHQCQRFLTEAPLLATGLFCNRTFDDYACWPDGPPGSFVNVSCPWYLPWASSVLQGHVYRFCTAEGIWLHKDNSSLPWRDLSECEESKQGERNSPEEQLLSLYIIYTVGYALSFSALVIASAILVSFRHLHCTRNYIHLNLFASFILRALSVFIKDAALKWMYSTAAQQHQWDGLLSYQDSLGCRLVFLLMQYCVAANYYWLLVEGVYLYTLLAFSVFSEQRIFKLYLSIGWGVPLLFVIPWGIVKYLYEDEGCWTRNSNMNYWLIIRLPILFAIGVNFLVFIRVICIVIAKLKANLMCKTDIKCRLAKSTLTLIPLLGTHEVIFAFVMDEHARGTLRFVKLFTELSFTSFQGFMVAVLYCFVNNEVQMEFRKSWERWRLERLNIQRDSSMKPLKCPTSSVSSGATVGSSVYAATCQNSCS
Protocol: The cells were obtained from the American Type Culture Collection (ATCC, #203641 F13132) and grown in RPMI 1640 (GIBCO, #21870-076) supplemented with 2 mM L-glutamine, 10% heat inactivated fetal bovine serum, and 10 μg/ml Gentamicin.
RIN-m5F cells were plated in 12 well plates at a density of 2.0×10^5 cells per ml and grown for 4 days in complete RPMI 1640 with 10% fetal bovine serum; the medium was changed the day before experiment. The cells were from 70-90% confluent at the time of the experiment. On the day of the experiment, the incubation medium was removed and the cells were washed with fresh serum-free RPMI 1640 containing 0.1% bovine serum albumin (serum-free medium). One ml DMEM complete with 1 mM 3-isobutyl-1-methylxanthine (Sigma) was added and the plates were placed at 37° C. and 5.0% CO2 for 15 minutes before initiation of the experiment. Fresh compounds were acquired and dissolved as 10 mM solutions in DMSO. A further 1:10 dilution was prepared in DMEM and after the incubation period, the compounds were added to the wells at 30 μM final concentration. The final concentration of DMSO was always 0.3%. The wells were treated with or without GLP-1 (3 nM). The plates were then incubated at 37° C. and 5.0% CO2 for 15 minutes. […] The solution was mixed well and quantitatively transferred to microcentrifuge tubes with 1 wash of 0.5 ml of the 50 mM NaOH solution. […]

human GLP-1 receptor = target: T2, human GLP-1 receptor (Homo sapiens, UniProt P43220); test: Inhibition of 125I-GLP-1 binding to human recombinant GLP-1 receptors (SPA); details: 125I-GLP-1, membranes of COS7 cells transfected with human GLP-1 receptor, Cheng-Prushoff equation; read-out: K1 value, inhibition of the binding of GLP-1 to its receptor
T2 construct: expressed in transfected cells; host or cells: COS7 cells (COShGLPr, clone #16)
Protocol: Wheatgerm agglutinin scintillation proximity assay (SPA) beads (500 mg) from Amersham (RPNQ 0001) were diluted into 50 ml of assay buffer (Assay buffer consisted of 150 mM NaCl, 10 mM MgCl2, 1 mM EDTA, and 20 mM HEPES, pH 7.4). The SPA beads were combined (1:1 v/v) with a crude membrane preparation from COS7 cells transfected with the human GLP-1 receptor at a concentration of 30 μg/ml/well. These cells (COShGLPr, clone #16) were grown in Dulbecco's Modified Eagle Medium with high glucose (DMEM Gibco, #11965-092) supplemented with 10% heat-inactivated fetal bovine serum (Gibco, #1600-044), 2 mM L-Glutamine (Gibco #25030-081), and 10 μg/ml Gentamicin (Gibco #15710-064) with 705 μg/ml Geneticin (G418 sulfate, Gibco) (DMEM complete). The mixture was incubated for two hours at room temperature with constant rotation. The free membranes were washed away by centrifuging the mixture for 5 minutes at 800 rpm in a table-top GLCl (Sorvall) centrifuge. The supernatant was discarded and the pellet was resuspended in 50 ml assay buffer+0.1% bovine serum albumin. […] The plates were counted approximately 10 h later in a Microbeta Trilux liquid scintillation counter (WALLAC). […] Binding constants (Ki) were calculated with the Cheng-Prushoff equation (Cheng Y C and Prushoff W H, Biochem Pharmacol 22:3099, 1973). […]

T2 sequence (P43220 24-463): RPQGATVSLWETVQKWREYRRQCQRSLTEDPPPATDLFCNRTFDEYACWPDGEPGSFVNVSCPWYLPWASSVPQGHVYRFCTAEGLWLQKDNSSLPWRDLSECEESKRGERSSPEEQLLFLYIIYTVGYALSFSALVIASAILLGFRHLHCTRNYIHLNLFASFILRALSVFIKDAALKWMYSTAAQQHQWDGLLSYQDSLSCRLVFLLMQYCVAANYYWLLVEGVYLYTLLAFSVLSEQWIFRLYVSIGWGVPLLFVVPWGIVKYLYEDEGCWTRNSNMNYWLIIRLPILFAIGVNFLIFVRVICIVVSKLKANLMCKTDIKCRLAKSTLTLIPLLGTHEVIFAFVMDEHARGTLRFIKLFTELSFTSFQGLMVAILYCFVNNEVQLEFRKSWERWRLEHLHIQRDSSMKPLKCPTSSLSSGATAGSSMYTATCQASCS

Molecule	GLP-1 induced insulin release (RIN-m5F cells)	GLP-1 stimulated cAMP production [1]	Ki (human GLP-1 receptor) [nM]	insulin release (RIN-m5F cells; in the presence of 3 nM GLP-1 alone, 1 h (medium 6.3±1.4 ng/ml)) [ng/mL]
COc1ccc(N/C=C/c2c([N+](=O)[O-])c(C)nn2C)c(OC)c1 [Compound D, 2,4-dimethoxy-1-{[(E)-2-(1,3-dimethyl-4-nitro-1H-pyrazol-5-yl)ethenyl]amino}benzene]	substantial reduction of the GLP-1 induced insulin release			
Cc1nn(C)c(/C=C/Nc2cc(Cl)ccc2O)c1[N+](=O)[O-] [Compound A, 4-chloro-2-{[(E)-2-(1,3-dimethyl-4-nitro-1H-pyrazol-5-yl)ethenyl]amino}phenol]	substantial reduction of the GLP-1 induced insulin release	concentration dependently decreased GLP-1 stimulated cAMP production to a level close to that obtained in the absence of GLP-1	~1000	
Cc1nn(C)c(/C=C/Nc2ccc(OC(F)(F)F)cc2)c1[N+](=O)[O-] [Compound C, 4-trifluoromethoxy-1-{[(E)-2-(1,3-dimethyl-4-nitro-1H-pyrazol-5-yl)ethenyl]amino}benzene]	substantial reduction of the GLP-1 induced insulin release			
Cc1nn(C)c(/C=C/Nc2ccc(F)cc2)c1[N+](=O)[O-] [Compound B, 4-fluoro-1-{[(E)-2-(1,3-dimethyl-4-nitro-1H-pyrazol-5-yl)ethenyl]amino}benzene]	substantial reduction of the GLP-1 induced insulin release			
Glucagon-like peptide 1(7-36)amide [GLP-1, reference compound]				10.5 ± 1.4
